Measurements from patent US20090169472A1, “METHODS AND COMPOSITIONS FOR TREATING IMMUNE DISORDERS” (CANCER RESEARCH TECHNOLOGY LTD., priority 2005, published 2009).
Oligonucleotides are written 5' to 3', each unit as a sugar letter and its base; * is a phosphorothioate linkage, no mark a phosphodiester; rarer units and linkages stand in square brackets, end groups in braces. Plain capitals give the bases only. r = 2'-OH (RNA)

What was measured:
[1] = system: human plasmacytoid DC (pDC); test: Human pDC activation assay (IFNα and IL-6 in supernatant by sandwich ELISA); format: cell-based; conditions: for IFN-α production by human pDC: different doses of polyUs 21-mer, polyAs 21-mer 1 μM, overnight culture
Procedure: Human pDC activation assays. R848 and RNA9.2DR complexed to LyoVec were from Invivogen. RNA oligonucleotides were purchased from Sigma Proligo. Human PMBCs were purified from normal human peripheral blood by Ficoll-Hypaque centrifugation. BDCA4^+ plasmacytoid DC were purified from total PBMC by positive selection using CD304^+ Microbeads and MiniMacs from MiltenyiBiotec. Oligonucleotides/PEI complexes, prepared as described above, were added to 1-2×10^5 pDC seeded in duplicate in 96-well-plates. Cells were cultured overnight in a final volume of 200 μl, supernatants were collected after 18-20 hr of culture and levels of IFNα and IL-6 were determined by sandwich ELISA.

[2] = system: Flt3L-DC; test: Flt3L-DC activation assay (cytokines in supernatant by sandwich ELISA); format: cell-based, mouse; conditions: for IFNα induction by Flt3L-DC compared with polyUs-21 (reference TLR7 ligand): comparison in words; for ability to stimulate TLR7: summary statement on oligonucleotides of Table 1
Procedure: Flt3L-DC were generated from bone marrow cell suspensions in RPMI 1640 medium containing 10% fetal calf serum, 2 mM glutamine, 100 units/ml penicillin, 100 μg/ml streptomycin, 50 μM 2-mercaptoethanol and 50 ng/ml murine Flt3L (R&D systems) and were used at day 10 or 11 of cultures.
For stimulation with oligonucleotides, 2×10^5 Flt3L-DC were seeded in triplicate in 96-well-plates. Oligonucleotides were added and cells were cultured overnight in a final volume of 200 μl. Controls contained medium alone, 0.5 μg/ml CpG 1668, 100 mM loxoribine or 1 μM R848.
For stimulation with oligonucleotides other than CpG 1668, different doses of each test oligonucleotides were diluted in 150 mM NaCl solution and mixed with an equal volume of 150 mM NaCl solution+/−polytheylenimine (PEI; 3 μl/ml PEI were used irrespective of the RNA dose). After 15 min incubation at room temperature, oligonucleotide/PEI complexes were added to cells. Supernatants were collected after 18-20 hr of culture and levels of IFNα, IL-6 and IL-12 p40 were determined by sandwich ELISA.

[3] = oligonucleotide/PEI complexes, C57BL/6 Flt3L-DC, overnight culture, result in words
[4] = free oligonucleotide given to culture without PEI
[5] = polyUs 21-mer 10 μM as PEI complexes, RNA9.2DR 1 μM as LyoVec complexes, R848 1 μM

Substance	IFN-α production by human pDC ([1]; PEI complexes)	IFNα induction by Flt3L-DC [2, 3]	IFNα induction by Flt3L-DC compared with polyUs-21 (reference TLR7 ligand) ([2]; PEI complexes)	IFNα induction by Flt3L-DC [2, 4]	ability to stimulate TLR7 [2]	further results
polyAs-21: polyA RNA 21-mer, phosphorothioate bonds, SEQ ID NO 26 (rA*rA*rA*rA*rA*rA*rA*rA*rA*rA*rA*rA*rA*rA*rA*rA*rA*rA*rA*rA*rA)	failed to induce IFNα	failed to induce IFNα	–	–	–	–
polyUo-21: polyU RNA 21-mer, phosphodiester bonds, SEQ ID NO 2 (UUUUUUUUUUUUUUUUUUUUU; unmodified RNA)	–	induced IFNα by Flt3L-DC in a dose dependent manner	induced similar IFNα	failed to induce IFNα	capable of stimulating TLR7	–
polyUs-15: polyU RNA 15-mer, phosphorothioate bonds, SEQ ID NO 6 (rU*rU*rU*rU*rU*rU*rU*rU*rU*rU*rU*rU*rU*rU*rU)	–	–	indistinguishable from the response obtained with the 21-mer	–	capable of stimulating TLR7	–
polyUs-21: polyU RNA 21-mer, phosphorothioate bonds, SEQ ID NO 5 (rU*rU*rU*rU*rU*rU*rU*rU*rU*rU*rU*rU*rU*rU*rU*rU*rU*rU*rU*rU*rU)	induced IFN-α production by human pDC in a dose-dependent manner	induced IFNα by Flt3L-DC in a dose dependent manner	–	induced IFNα	capable of stimulating TLR7	optimal dose of ssRNA for IFN-α induction ([1]; human pDC, PEI complexes): 3 µg/mL; IFNα production by human pDC, comparison of TLR7/8 agonists [1, 5]: induced equivalent levels of IFNα production by human pDC; IL-6 induction by human pDC [1, 5]: failed to induce IL-6 secretion by pDC; potency in inducing IFNα compared with RNA40 ([2]; PEI complexes): much more potent than RNA40; IFNα levels, RNA oligonucleotide polyUs-21 compared with DNA oligonucleotide polydUs-21 ([2]; PEI complexes, all doses tested): induced higher levels of IFNα at all doses tested; fold more potent in inducing IFNα by Flt3L-DC than R848 and loxoribine ([2]; ligands at concentrations of maximum cytokine induction: polyUs-21 1 μg/ml + PEI, CpG 1668 0.5 μg/ml, loxoribine 100 mM, R848 10 μg/ml): approximately 30 times; optimal dose of ssRNA for IFNα induction ([2]; mouse Flt3L, PEI complexes): 3 µg/mL
polydUo-21: polyU DNA 21-mer (dU), phosphodiester bonds, SEQ ID NO 8 (UUUUUUUUUUUUUUUUUUUUU; listed as RNA, chemistry not fully specified)	–	produced IFNα	–	–	capable of stimulating TLR7	potency in inducing IFNα compared with polyUo-21 ([2]; at higher doses, PEI complexes): even more potent; potency in stimulating an IFNα response compared with polyUo-21 ([2]; at lower doses, PEI complexes): less potent
polydUs-21: polyU DNA 21-mer (dU), phosphorothioate bonds, SEQ ID NO 9 (UUUUUUUUUUUUUUUUUUUUU; DNA, all phosphorothioate, T or U not given here)	–	–	–	–	capable of stimulating TLR7	–
